# Experimental data published in US20220242846A1, “ISOINDOLINONE COMPOUNDS” (Monte Rosa Therapeutics AG, priority 2019, published 2022).
# Where two headings read alike, the source gives them in different places.
# What was measured:
# [1] = target: T1, Full length wild-type cereblon CRBN (Homo sapiens, UniProt Q96SW2); assay: Fluorescence polarization (FP) assay indicating cereblon binding; conditions: CRBN 80.0 nM, fluorescent probe 5 nM, FP measured after 12 hours; read-out: rFP IC50
# T1 construct: Full length wild-type cereblon CRBN (80.0 nM, 10 μL) was incubated in assay buffer
# T1 sequence (Q96SW2 whole entry): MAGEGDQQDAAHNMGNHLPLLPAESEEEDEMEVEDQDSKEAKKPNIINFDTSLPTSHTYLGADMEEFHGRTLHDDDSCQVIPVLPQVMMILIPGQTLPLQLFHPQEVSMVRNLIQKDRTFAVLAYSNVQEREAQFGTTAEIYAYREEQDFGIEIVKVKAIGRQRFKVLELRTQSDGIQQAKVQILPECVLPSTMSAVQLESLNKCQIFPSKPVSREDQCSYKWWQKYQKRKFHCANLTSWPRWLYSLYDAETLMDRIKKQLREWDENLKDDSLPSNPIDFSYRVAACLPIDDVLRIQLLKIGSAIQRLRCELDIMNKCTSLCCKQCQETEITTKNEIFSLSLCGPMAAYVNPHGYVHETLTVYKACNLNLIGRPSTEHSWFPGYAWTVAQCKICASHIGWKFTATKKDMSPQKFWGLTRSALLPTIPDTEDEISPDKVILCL
# Text: Protocol for Fluorescent Polarization Assay
# Compound activity was monitored in a fluorescence polarization (FP) homogeneous assay using 1-[5-({2-[2-(2-{[2-(2,6-dioxopiperidin-3-yl)-1,3-dioxo-2,3-dihydro-1H-isoindol-4-yl]oxy}acetamido)ethoxy]ethyl}carbamoyl)pentyl]-3,3-dimethyl-2-[(1E,3E)-5-[(2E)-1,3,3-trimethyl-5-sulfo-2,3-dihydro-1H-indol-2-ylidene]penta-1,3-dien-1-yl]-3H-indol-1-ium-5-sulfonate as a fluorescent probe. Unless otherwise stated, all reagents were purchased from Sigma Aldrich. Enzymatic reactions were conducted in Perkin-Elmer Black 384 well ProxiPlate Plus (catalogue no. 6008269) in 10 μL total volume. Full length wild-type cereblon CRBN (80.0 nM, 10 μL) was incubated in assay buffer containing 20 mM HEPES (pH 8.0), […], 0.5 mM TCEP and 0.05% Tween 20 in the presence or absence of compound (300 nL). Inhibitors were stored as 10 mM DMSO stocks in an inert environment (low humidity, dark, low oxygen, room temperature) using the Storage Pod System. Compounds and DMSO were dispensed using the Echo E5XX (Labcyte Inc. USA) to give concentrations from 300 to 0.937 or 3000 to 9.3 nM in a 12 data point curve. […] Following incubation at room temperature for […], the assay was initiated by dispensing the probe to a final concentration of 5 nM (2.5 nL of a 20 μM stock) using the Echo E5XX. FP was measured after a period of 12 hours using a Pherastar plate reader (BMG Labtech, Germany) exciting at 590 nm and measuring the amount of parallel and perpendicular light at 675 nm. The FP signal was subsequently normalized to the no-compound control (i.e., DMSO). Analysis and IC50 values were derived using Dotmatics (Dotmatics UK) software.
# GSPT1 = GSPT1 (Homo sapiens, UniProt P15170+Q96SW2); assay: Immunofluorescence assay for GSPT1 degradation in CAL-51 cells; assay type: cell-based; set-up: CAL-51 cells were purchased from DSMZ (cat. Number ACC302); endogenous in cells; host or cells: CAL-51 (DSMZ ACC302); conditions: compound treatment 6 hours
# Sequence of GSPT1 (P15170 whole entry): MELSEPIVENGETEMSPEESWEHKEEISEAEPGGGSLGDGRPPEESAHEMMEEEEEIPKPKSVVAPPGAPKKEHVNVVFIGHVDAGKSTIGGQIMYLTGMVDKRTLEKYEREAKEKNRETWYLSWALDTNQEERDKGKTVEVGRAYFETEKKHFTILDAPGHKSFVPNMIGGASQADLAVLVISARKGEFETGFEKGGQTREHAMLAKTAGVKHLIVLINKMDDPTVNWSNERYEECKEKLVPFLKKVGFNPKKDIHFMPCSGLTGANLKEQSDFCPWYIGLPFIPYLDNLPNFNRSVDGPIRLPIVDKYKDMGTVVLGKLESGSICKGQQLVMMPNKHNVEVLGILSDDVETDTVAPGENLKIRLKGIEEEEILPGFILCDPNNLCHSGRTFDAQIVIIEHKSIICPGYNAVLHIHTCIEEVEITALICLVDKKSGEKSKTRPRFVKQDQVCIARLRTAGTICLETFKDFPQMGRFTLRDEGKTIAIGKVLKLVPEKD
# Sequence of GSPT1 (Q96SW2 whole entry): as the sequence (Q96SW2 whole entry) above
# Sequence of GSPT1 (Q16531 2-1140 partner limits assumed): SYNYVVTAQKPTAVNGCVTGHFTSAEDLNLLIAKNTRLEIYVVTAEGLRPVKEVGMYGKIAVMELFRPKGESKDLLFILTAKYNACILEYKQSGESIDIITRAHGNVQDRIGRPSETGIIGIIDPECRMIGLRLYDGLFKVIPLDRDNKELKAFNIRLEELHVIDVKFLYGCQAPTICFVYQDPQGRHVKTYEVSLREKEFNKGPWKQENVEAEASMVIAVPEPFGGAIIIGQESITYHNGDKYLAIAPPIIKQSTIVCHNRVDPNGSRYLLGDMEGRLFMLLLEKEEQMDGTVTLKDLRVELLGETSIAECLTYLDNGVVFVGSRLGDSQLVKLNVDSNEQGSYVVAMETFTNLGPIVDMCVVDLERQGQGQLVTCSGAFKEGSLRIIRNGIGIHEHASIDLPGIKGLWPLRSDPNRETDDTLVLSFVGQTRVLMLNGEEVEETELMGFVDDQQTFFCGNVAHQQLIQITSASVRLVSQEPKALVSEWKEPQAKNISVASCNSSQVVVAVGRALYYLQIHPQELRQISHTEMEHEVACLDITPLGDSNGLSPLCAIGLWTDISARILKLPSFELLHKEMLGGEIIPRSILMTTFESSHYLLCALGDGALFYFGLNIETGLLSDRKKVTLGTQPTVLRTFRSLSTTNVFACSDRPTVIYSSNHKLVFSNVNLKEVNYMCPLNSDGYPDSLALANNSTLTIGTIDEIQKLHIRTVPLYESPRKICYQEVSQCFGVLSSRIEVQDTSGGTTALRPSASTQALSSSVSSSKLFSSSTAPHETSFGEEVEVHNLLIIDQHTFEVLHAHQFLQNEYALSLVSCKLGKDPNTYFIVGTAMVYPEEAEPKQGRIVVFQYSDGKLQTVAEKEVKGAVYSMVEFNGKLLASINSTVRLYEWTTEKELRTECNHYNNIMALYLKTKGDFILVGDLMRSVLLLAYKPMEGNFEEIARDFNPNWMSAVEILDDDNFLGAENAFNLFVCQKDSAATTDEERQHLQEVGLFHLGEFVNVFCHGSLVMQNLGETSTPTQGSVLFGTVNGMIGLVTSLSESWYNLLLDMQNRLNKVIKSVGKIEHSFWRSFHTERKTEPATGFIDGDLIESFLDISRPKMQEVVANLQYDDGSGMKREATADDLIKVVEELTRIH
# Procedure: CAL-51 cells were purchased from DSMZ (cat. Number ACC302), sub-cultured in 90% Dulbecco's MEM (4.5 g/L glucose, Gibco 11965) +10% heat inactivated FBS (BioConcept, 2-01F136I) and incubated at 37° C., 5% CO2. For the assay, imaging microtiterplate Cell Carrier 96 Ultra (Perkin Elmer 6055302) were pre-coated with Fibronectin (Sigma F085, 300 at 0.2 μg/ml) in PBS (1000, Gibco 14190) for 45 min at room temperature, rinsed with PBS and CAL-51 cells (30K cells/well) were plated and let to adhere overnight. Cells were treated with compounds typically using a serial dilution ranging from 30 μM to 0.1 nM for 6 hours. Compounds were stored at 10 mM DMSO stocks. Vehicle (DMSO), positive (CC-885, 10 μM) and rescue controls (positive control plus 0.2 μM bortezomib) were also included at this stage. Cells were subsequently rinsed with PBS and fixed in 10% Formalin solution (50 μl, Sigma HT5011)) for 20 mins at room temperature. Following three consecutive PBS washes (100 μl), cells were permeabilized in 0.1% Triton X-100 in PBS (Sigma 93443, 50 μl) for 15 mins at room temperature. Following three further PBS washes, 50 μl blocking buffer (1% BSA, Sigma A4503, in PBS) was added for 45 min for signal-to-noise reduction. Primary antibody (human GSPT1, Sigma HPA052488) was diluted in blocking buffer (dil. 1/300, 35 μl/well) and incubated with the cells overnight at 4° C. After three PBS washes, Alexa-fluor 488 coupled secondary antibodies (Invitrogen, A32731, dil. 1/1000), Alexa-fluor 647-Phalloïdin (Invitrogen, A22287, dil. 1/200) and DAPI (Thermo, #62248, dil.1/1000) were diluted in blocking buffer and incubated with the samples for 2 hours at room temperature. After three final PBS washes, samples were conserved in 1000 PBS in the dark, until measurement. Image acquisition was performed on the Operetta High-Content Imager (Perkin-Elmer). Fluorescence intensity of Alexa-Fluor 488 (GSPT1), Alexa-Fluor 647 (Actin) and DAPI (Nucleus) were measured. For the determination of GSPT1 DC50 values, a custom algorithm implemented in the PerkinElmer image analysis software Harmony-Acapella® was developed. After user-defined setting of adjustment parameters, the analysis was run identically without human intervention for all image fields. DAPI staining of the nuclei was used to determine the location of cells using standard nuclei detection modules. Segmentation artifacts were removed by threshold-based filters for area, roundness and intensity. The outline of the cells was determined analogously from the sum of the normalized, smoothed DAPI and Actin channel, starting from each nucleus. The Alexa-Fluor 488 (GSPT1) signal intensity in each cell was finally measured, in order to obtain a Mean intensity per cell. GSPT1 degradation (DC50) was calculated after normalization to controls and data import in CDD vault Database, using non-linear regression. Activity for GSPT1 Degradation Table 3 assigns each compound a code indicating the ability for GSPT1 degradation: A, B or C. According to the code, A represents a DC50 value of ≤100 nM, B represents a DC50 value >100 nM and ≤300 nM and C represents a DC50 value of >300 nM.
# [2] = read-out: Code: activity for GSPT1 degradation (DC50)
# [3] = GSPT1 degradation, read-out: DC50
Compound,IC50 [1] [nM],DC50 (GSPT1; [2]) [nM],DC50 (GSPT1; [3]) [nM]
CN(C)c1ccc(NC(=O)NCc2ccc3c(c2)C(=O)N(C2CCC(=O)NC2=O)C3)cc1 (stereo not shown) [Compound 79],317,> 300,–
Nc1cccc(NC(=O)NCc2ccc3c(c2)C(=O)N(C2CCC(=O)NC2=O)C3)c1 (stereo not shown) [Compound 80],515,> 300,–
Nc1ccc(NC(=O)NCc2ccc3c(c2)C(=O)N(C2CCC(=O)NC2=O)C3)cc1 (stereo not shown) [Compound 81],919,> 300,–
Cn1cc(NC(=O)NCc2ccc3c(c2)C(=O)N(C2CCC(=O)NC2=O)C3)cn1 (stereo not shown) [Compound 83],387,> 300,–
O=C1CCC(N2Cc3ccc(CNC(=O)Nc4ccsc4)cc3C2=O)C(=O)N1 (stereo not shown) [Compound 84],348,> 300,–
COc1c(NC(=O)NCc2ccc3c(c2)C(=O)N(C2CCC(=O)NC2=O)C3)ccc(C)c1Cl (stereo not shown) [Compound 86],203,> 300,–
Cn1ccc(NC(=O)NCc2ccc3c(c2)C(=O)N(C2CCC(=O)NC2=O)C3)n1 (stereo not shown) [Compound 88],351,> 300,–
CN(C)c1cccc(NC(=O)NCc2ccc3c(c2)C(=O)N(C2CCC(=O)NC2=O)C3)c1 (stereo not shown) [Compound 89],225,100 to 300,198
O=C1CCC(N2Cc3ccc(CNC(=O)Nc4cccc(OC(F)(F)F)c4)cc3C2=O)C(=O)N1 (stereo not shown) [Compound 90],471,≤ 100,–
O=C1CCC(N2Cc3ccc(CNC(=O)Nc4cccs4)cc3C2=O)C(=O)N1 (stereo not shown) [Compound 91],315,> 300,–
O=C1CCC(N2Cc3ccc(CNC(=O)Nc4nccs4)cc3C2=O)C(=O)N1 (stereo not shown) [Compound 92],304,> 300,–
Cc1ccc(NC(=O)NCc2ccc3c(c2)C(=O)N(C2CCC(=O)NC2=O)C3)c(C)c1Cl (stereo not shown) [Compound 93],248,> 300,–
O=C1CCC(N2Cc3ccc(CNC(=O)Nc4ccon4)cc3C2=O)C(=O)N1 (stereo not shown) [Compound 94],408,> 300,–
O=C1CCC(N2Cc3ccc(CNC(=O)Nc4cccnc4)cc3C2=O)C(=O)N1 (stereo not shown) [Compound 95],432,> 300,–
Cc1cc(Cl)c(NC(=O)NCc2ccc3c(c2)C(=O)N(C2CCC(=O)NC2=O)C3)c(C)c1Cl (stereo not shown) [Compound 96],222,> 300,–
Cc1cc(NC(=O)NCc2ccc3c(c2)C(=O)N(C2CCC(=O)NC2=O)C3)no1 (stereo not shown) [Compound 97],301,> 300,–
O=C1CCC(N2Cc3ccc(CNC(=O)Nc4cc[nH]c4)cc3C2=O)C(=O)N1 (stereo not shown) [Compound 98],404,> 300,–
O=C1CCC(N2Cc3ccc(CNC(=O)Nc4cscn4)cc3C2=O)C(=O)N1 (stereo not shown) [Compound 99],367,> 300,–
Cc1cc(C)c(NC(=O)NCc2ccc3c(c2)C(=O)N(C2CCC(=O)NC2=O)C3)c(Cl)c1Cl (stereo not shown) [Compound 100],178,> 300,–

Compound,IC50 [1] [nM],DC50 (GSPT1; [2]) [nM],DC50 (GSPT1; [3]) [nM]
"Cc1ccc(NC(=O)NCc2ccc3c(c2)C(=O)N(C2CCC(=O)NC2=O)C3)cc1CN1CCOCC1 (stereo not shown) [Compound 101, 1-((2-(2,6-dioxopiperidin-3-yl)-3-oxoisoindolin-5-yl)methyl)-3-(4-methyl-3-(morpholinomethyl)phenyl)urea]",325,100 to 300,224
O=C1CCC(N2Cc3ccc(CNC(=O)Nc4cc[nH]n4)cc3C2=O)C(=O)N1 (stereo not shown) [Compound 102],389,> 300,–
O=C1CCC(N2Cc3ccc(CNC(=O)Nc4cncs4)cc3C2=O)C(=O)N1 (stereo not shown) [Compound 103],272,> 300,–
O=C1CCC(N2Cc3ccc(CNC(=O)Nc4ccncc4)cc3C2=O)C(=O)N1 (stereo not shown) [Compound 104],234,> 300,–
O=C1CCC(N2Cc3ccc(CNC(=O)Nc4cccc(C(F)F)c4)cc3C2=O)C(=O)N1 (stereo not shown) [Compound 106],353,100 to 300,188
Cc1cc(C)c(NC(=O)NCc2ccc3c(c2)C(=O)N(C2CCC(=O)NC2=O)C3)c(C)c1Cl (stereo not shown) [Compound 107],247,> 300,–
O=C1CCC(N2Cc3ccc(CNC(=O)Nc4cn[nH]c4)cc3C2=O)C(=O)N1 (stereo not shown) [Compound 108],661,> 300,–
Cc1c(Cl)cc(NC(=O)NCc2ccc3c(c2)C(=O)N(C2CCC(=O)NC2=O)C3)cc1CN1CC2(COC2)C1 (stereo not shown) [Compound 109],163,100 to 300,246
O=C1CCC(N2Cc3ccc(CNC(=O)Nc4cccc(OC(=O)CN5CCOCC5)c4)cc3C2=O)C(=O)N1 (stereo not shown) [Compound 110],302,> 300,–
O=C1CCC(N2Cc3ccc(CNC(=O)Nc4cccc(OC5CCNCC5)c4)cc3C2=O)C(=O)N1 (stereo not shown) [Compound 111],240,> 300,–
O=C1CCC(N2Cc3ccc(CNC(=O)Nc4cccc(-c5ncc[nH]5)c4)cc3C2=O)C(=O)N1 (stereo not shown) [Compound 112],270,> 300,–
Cc1nccn1-c1cccc(NC(=O)NCc2ccc3c(c2)C(=O)N(C2CCC(=O)NC2=O)C3)c1 (stereo not shown) [Compound 113],283,> 300,–
O=C1CCC(N2Cc3ccc(CNC(=O)Nc4ccc(C(F)F)cc4)cc3C2=O)C(=O)N1 (stereo not shown) [Compound 114],443,> 300,–
Cn1nccc1-c1cccc(NC(=O)NCc2ccc3c(c2)C(=O)N(C2CCC(=O)NC2=O)C3)c1 (stereo not shown) [Compound 115],230,100 to 300,299
Cn1ccc(-c2cccc(NC(=O)NCc3ccc4c(c3)C(=O)N(C3CCC(=O)NC3=O)C4)c2)n1 (stereo not shown) [Compound 116],139,> 300,–
Cc1c(Cl)cc(NC(=O)NCc2ccc3c(c2)C(=O)N(C2CCC(=O)NC2=O)C3)cc1OCCCN(C)C (stereo not shown) [Compound 117],152,> 300,–
Cc1cc(NC(=O)NCc2ccc3c(c2)C(=O)N(C2CCC(=O)NC2=O)C3)cc(CN2CCOCC2)c1C (stereo not shown) [Compound 118],256,≤ 100,–
Cc1c(Cl)cc(NC(=O)NCc2ccc3c(c2)C(=O)N(C2CCC(=O)NC2=O)C3)cc1CN1CC2CCC(C1)O2 (stereo not shown) [Compound 140],559,–,–
Cc1c(Cl)cc(NC(=O)NCc2ccc3c(c2)C(=O)N(C2CCC(=O)NC2=O)C3)cc1CN1CCN2CCC1C2 (stereo not shown) [Compound 154],688,–,–
